SMILES strings stand for the structures.

The source of these data is patent US20240034731A1, “AZA-QUINAZOLINE COMPOUNDS AND METHODS OF USE” (Iambic Therapeutics, Inc., priority 2022, published 2024).

In one assay the test system is MCF-7 cells. The assay is described as follows: Cell Growth Inhibition, MCF-7 (CellTiterGlo, 6 days). Conditions: Homo sapiens, MCF7, 144 h, MCF-7, 6-day treatment. Format: cell-based. The procedure, abridged: (§1)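 MCF-7 (ER+ breast adenocarcinoma) or CCNE1-amplified OVCAR-3 cells, 500/well in RPMI with 10% FBS, treated with half-log dilutions typically 10-10,000 nM for 6 days at 37 °C. CellTiterGlo 2.0 luminescence gave % growth inhibition versus control; IC50 by four-parameter variable-slope fit.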
Background: Cellular ATP, detected with luciferase, serves as a proxy for viable cell number.

The next assay deals with CDK4/Cyclin D1 (Homo sapiens (Human), UniProt P11802). Kind of assay: CDK4/Cyclin D1 CHEF Assay (AQT0258 peptide). Format: biochemical. Conditions: 200 uM ATP, read-out: CDK4/ CyclinD1 AQT IC50. The procedure, abridged:
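Sox-labelled peptide AQT0258 phosphorylation read as chelation-enhanced fluorescence (ex 360/em 485 nm) with Mg(II). Enzyme preincubated with inhibitor 30 min at 22°C, substrate added, 3 h at 22°C; IC50 from four-parameter fit of fractional velocity versus inhibitor concentration.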

Another assay concerns the target CDK1/Cyclin B1 (Homo sapiens (Human), UniProt P06493). Kind of assay: CDK1/Cyclin B1 ADP-Glo Kinase Assay. Format: biochemical. The following applies: ADP-Glo, 80 uM ATP; read-out: CDK1 Cyclin B1 IC50. The procedure, abridged: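 Enzyme and inhibitor pre-incubated 30 min at room temperature before ATP/substrate addition; reaction run 90 min at room temperature. ADP formed measured by ADP-Glo luminescence; IC50 from a 4-parameter fit of fractional velocity versus inhibitor concentration.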
(In general: ADP-Glo first removes unused ATP, then detects ADP through luciferase.)

In another assay the target is CDK6/Cyclin D3 (Homo sapiens (Human), UniProt Q00534). The assay is described as follows: CDK6/Cyclin D3 ADP-Glo Kinase Assay. Format: biochemical. Conditions: 100 uM ATP, read-out: CDK6/ CyclinD3 IC50. The essentials: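 Enzyme and inhibitor were pre-incubated for 30 min at room temperature before ATP/substrate was added. The kinase reaction ran 90 min at room temperature, and ADP formed was detected by ADP-Glo luminescence. IC50 was fitted with a 4-parameter equation to fractional velocity versus inhibitor concentration.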

The next assay addresses CDK2/Cyclin E1 (Homo sapiens (Human), UniProt P24941). Kind of assay: CDK2/Cyclin E1 Full length ADP-Glo Kinase Assay. Conditions: 20 uM ATP, read-out: CDK2/ CyclinE1 IC50. Format: biochemical. The procedure, abridged: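 Full-length human CDK2/cyclin E1 was preincubated 30 min at room temperature with inhibitor, then reacted 90 min with ATP-containing substrate solution. ADP formed was measured by ADP-Glo luminescence; IC50 from 4-parameter fit of fractional velocity versus inhibitor concentration.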

The next assay has as its system OVCAR-3 cells. The assay is described as follows: Cell Growth Inhibition, OVCAR-3 (CellTiterGlo, 6 days). Format: cell-based. Conditions: Homo sapiens, 144 h, OVCAR-3, 6-day treatment. The essentials: as §1

Sequence of CDK1/Cyclin B1 (P06493 whole entry): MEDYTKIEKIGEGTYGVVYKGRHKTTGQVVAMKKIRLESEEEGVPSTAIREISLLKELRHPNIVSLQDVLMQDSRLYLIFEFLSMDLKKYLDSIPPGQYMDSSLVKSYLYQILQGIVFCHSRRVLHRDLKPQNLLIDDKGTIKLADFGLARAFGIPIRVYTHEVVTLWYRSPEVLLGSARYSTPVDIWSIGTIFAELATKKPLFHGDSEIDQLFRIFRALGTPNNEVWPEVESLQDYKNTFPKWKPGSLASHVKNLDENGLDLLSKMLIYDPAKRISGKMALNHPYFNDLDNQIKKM
Sequence of CDK1/Cyclin B1 (P14635 whole entry partner): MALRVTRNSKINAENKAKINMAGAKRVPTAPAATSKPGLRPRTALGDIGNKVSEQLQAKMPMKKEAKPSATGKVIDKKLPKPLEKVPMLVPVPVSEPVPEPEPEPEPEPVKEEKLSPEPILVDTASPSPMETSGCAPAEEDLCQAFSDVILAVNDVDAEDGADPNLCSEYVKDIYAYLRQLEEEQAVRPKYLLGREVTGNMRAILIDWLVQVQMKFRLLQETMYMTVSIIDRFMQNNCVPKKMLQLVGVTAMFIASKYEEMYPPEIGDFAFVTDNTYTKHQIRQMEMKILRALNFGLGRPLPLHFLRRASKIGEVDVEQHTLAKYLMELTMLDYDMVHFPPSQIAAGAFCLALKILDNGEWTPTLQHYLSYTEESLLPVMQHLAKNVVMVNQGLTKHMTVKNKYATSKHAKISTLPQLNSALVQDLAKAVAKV
Sequence of CDK4/Cyclin D1 (P11802 whole entry): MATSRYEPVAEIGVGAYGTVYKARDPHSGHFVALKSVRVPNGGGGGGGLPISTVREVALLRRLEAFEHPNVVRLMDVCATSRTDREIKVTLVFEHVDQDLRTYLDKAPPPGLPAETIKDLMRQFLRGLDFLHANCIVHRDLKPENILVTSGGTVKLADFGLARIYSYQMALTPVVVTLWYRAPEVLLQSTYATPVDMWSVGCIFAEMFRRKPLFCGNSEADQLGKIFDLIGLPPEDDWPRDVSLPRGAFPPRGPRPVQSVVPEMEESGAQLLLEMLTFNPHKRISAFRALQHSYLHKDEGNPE
Sequence of CDK4/Cyclin D1 (P24385 whole entry partner): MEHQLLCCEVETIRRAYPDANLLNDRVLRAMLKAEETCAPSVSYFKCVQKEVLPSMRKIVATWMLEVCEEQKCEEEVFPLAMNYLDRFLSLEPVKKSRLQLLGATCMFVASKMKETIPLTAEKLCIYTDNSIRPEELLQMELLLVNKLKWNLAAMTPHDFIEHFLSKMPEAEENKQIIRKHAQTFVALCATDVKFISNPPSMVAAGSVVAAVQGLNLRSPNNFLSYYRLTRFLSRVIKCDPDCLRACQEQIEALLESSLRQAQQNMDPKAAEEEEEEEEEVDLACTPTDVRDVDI
Sequence of CDK6/Cyclin D3 (Q00534 whole entry): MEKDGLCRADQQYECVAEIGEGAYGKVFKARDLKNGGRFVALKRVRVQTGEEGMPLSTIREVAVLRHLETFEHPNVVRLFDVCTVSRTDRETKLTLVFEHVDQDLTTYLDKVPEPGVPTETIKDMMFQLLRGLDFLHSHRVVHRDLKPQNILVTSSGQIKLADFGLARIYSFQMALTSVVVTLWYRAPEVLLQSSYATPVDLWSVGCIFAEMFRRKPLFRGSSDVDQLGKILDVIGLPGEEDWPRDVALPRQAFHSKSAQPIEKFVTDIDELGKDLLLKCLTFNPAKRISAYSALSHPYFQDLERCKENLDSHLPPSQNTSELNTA
Sequence of CDK6/Cyclin D3 (P30281 whole entry partner): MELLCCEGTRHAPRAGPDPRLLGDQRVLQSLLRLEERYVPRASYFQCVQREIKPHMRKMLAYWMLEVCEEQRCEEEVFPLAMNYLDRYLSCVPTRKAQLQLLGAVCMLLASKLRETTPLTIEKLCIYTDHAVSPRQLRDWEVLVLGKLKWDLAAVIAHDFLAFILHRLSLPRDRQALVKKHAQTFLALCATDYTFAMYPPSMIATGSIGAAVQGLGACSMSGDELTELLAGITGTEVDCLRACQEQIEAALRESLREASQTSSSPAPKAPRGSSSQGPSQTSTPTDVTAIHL

In the case of `Cc1cc2cnc(NC3CCN(S(C)(=O)=O)CC3)nc2c(N2CC(F)(F)C3(CNC3)C2)n1` [Compound 92, 8-(8,8-difluoro-2,6-diazaspiro[3.4]octan-6-yl)-6-methyl-N-(1-(methylsulfonyl)piperidin-4-yl)pyrido[3,4-d]pyrimidin-2-amine], the IC50 in the assay on MCF-7 cells was 500 to 2000 nM; at CDK4/Cyclin D1, under 200 nM; at CDK1/Cyclin B1 it was under 200 nM; at CDK6/Cyclin D3, under 200 nM; at CDK2/Cyclin E1, under 200 nM; with OVCAR-3 cells it was 500 to 2000 nM.

Take `Cc1cc2cnc(Nc3ccc4c(c3)CN(S(C)(=O)=O)C4)nc2c(N2CC3(CN(C)C3)C2)n1` [Compound 27, 6-methyl-8-(6-methyl-2,6-diazaspiro[3.3]heptan-2-yl)-N-(2-(methylsulfonyl)isoindolin-5-yl)pyrido[3,4-d]pyrimidin-2-amine]: the IC50 in the assay with MCF-7 cells was over 2000 nM; at CDK4/Cyclin D1, 500 to 2000 nM; at CDK1/Cyclin B1, 500 to 2000 nM; on CDK6/Cyclin D3, 500 to 2000 nM; on CDK2/Cyclin E1, under 200 nM; in the assay on OVCAR-3 cells, 500 to 2000 nM.

As for `COCCN1CC2(C1)CN(c1nc(C3CC3)cc3cnc(NC4CCN(S(=O)(=O)CC5CCC5)CC4)nc13)C2` [Compound 64, N-(1-((cyclobutylmethyl)sulfonyl)piperidin-4-yl)-6-cyclopropyl-8-(6-(2-methoxyethyl)-2,6-diazaspiro[3.3]heptan-2-yl)pyrido[3,4-d]pyrimidin-2-amine], the IC50 was over 2000 nM with MCF-7 cells; under 200 nM at CDK4/Cyclin D1; 500 to 2000 nM at CDK1/Cyclin B1; 200 to 500 nM at CDK6/Cyclin D3; under 200 nM at CDK2/Cyclin E1; over 2000 nM in the assay with OVCAR-3 cells.

Turning to `Cc1cc2cnc(Nc3cnn(C4CC5(C4)CN(C)C5)c3)nc2c(N2CC3(C2)CN(S(C)(=O)=O)C3)n1` [Compound 26, 6-methyl-N-(1-(2-methyl-2-azaspiro[3.3]heptan-6-yl)-1H-pyrazol-4-yl)-8-(6-(methylsulfonyl)-2,6-diazaspiro[3.3]heptan-2-yl)pyrido[3,4-d]pyrimidin-2-amine], the IC50 was over 2000 nM in the assay on MCF-7 cells; 200 to 500 nM on CDK4/Cyclin D1; over 2000 nM on CDK1/Cyclin B1; 500 to 2000 nM on CDK6/Cyclin D3; 200 to 500 nM on CDK2/Cyclin E1; over 2000 nM with OVCAR-3 cells.

`Cc1cc2cnc(NC3CCN(S(=O)(=O)CCC4(C)CC4)CC3)nc2c(N2CC(F)(F)C3(CNC3)C2)n1` [Compound 67, 8-(8,8-difluoro-2,6-diazaspiro[3.4]octan-6-yl)-6-methyl-N-(1-((2-(1-methylcyclopropyl)ethyl)sulfonyl)piperidin-4-yl)pyrido[3,4-d]pyrimidin-2-amine]: the IC50 in the assay with MCF-7 cells was over 2000 nM; at CDK4/Cyclin D1, under 200 nM; at CDK1/Cyclin B1, 200 to 500 nM; on CDK6/Cyclin D3, 200 to 500 nM; at CDK2/Cyclin E1, under 200 nM; in the assay with OVCAR-3 cells, over 2000 nM.

Regarding `CS(=O)(=O)N1CCC(Nc2ncc3cc(C(F)F)nc(N4CC5(CNCCC5(F)F)C4)c3n2)CC1` [Compound 65, 8-(9,9-difluoro-2,6-diazaspiro[3.5]nonan-2-yl)-6-(difluoromethyl)-N-(1-(methylsulfonyl)piperidin-4-yl)pyrido[3,4-d]pyrimidin-2-amine], the IC50 in the assay with MCF-7 cells is 200 to 500 nM; on CDK4/Cyclin D1, under 200 nM; on CDK1/Cyclin B1, under 200 nM; at CDK6/Cyclin D3, under 200 nM; at CDK2/Cyclin E1, under 200 nM; with OVCAR-3 cells it was 200 to 500 nM.

Take `CS(=O)(=O)N1CCC(Nc2ncc3cc(C4CC4)nc(C4CC5(CNCCO5)C4)c3n2)CC1` (stereo not drawn) [Compound 70, 6-cyclopropyl-N-(1-(methylsulfonyl)piperidin-4-yl)-8-(5-oxa-8-azaspiro[3.5]nonan-2-yl)pyrido[3,4-d]pyrimidin-2-amine]: the IC50 was 500 to 2000 nM in the assay on MCF-7 cells; under 200 nM on CDK4/Cyclin D1; under 200 nM at CDK1/Cyclin B1; under 200 nM on CDK6/Cyclin D3; under 200 nM at CDK2/Cyclin E1; 500 to 2000 nM in the assay on OVCAR-3 cells.

As to `CN1Cc2ccc(Nc3ncc4ccnc(N5CCC6(CCN(S(C)(=O)=O)C6)C5)c4n3)cc2C1` (stereo not drawn) [Compound 23, N-(2-methylisoindolin-5-yl)-8-(7-(methylsulfonyl)-2,7-diazaspiro[4.4]nonan-2-yl)pyrido[3,4-d]pyrimidin-2-amine], the IC50 was under 200 nM in the assay on MCF-7 cells; under 200 nM on CDK4/Cyclin D1; 500 to 2000 nM on CDK1/Cyclin B1; under 200 nM at CDK6/Cyclin D3; under 200 nM at CDK2/Cyclin E1; under 200 nM in the assay on OVCAR-3 cells.

For `Cc1cc2cnc(NC3CCN(S(C)(=O)=O)CC3)nc2c(N2CCC3(CC3)C2)n1` [Compound 54, 6-methyl-N-(1-(methylsulfonyl)piperidin-4-yl)-8-(5-azaspiro[2.4]heptan-5-yl)pyrido[3,4-d]pyrimidin-2-amine], the IC50 in the assay with MCF-7 cells was over 2000 nM; at CDK4/Cyclin D1, under 200 nM; on CDK1/Cyclin B1, under 200 nM; at CDK6/Cyclin D3, under 200 nM; at CDK2/Cyclin E1, under 200 nM; with OVCAR-3 cells it was 500 to 2000 nM.

With `Cc1cc2cnc(NC3CCN(S(=O)(=O)C4CC4)CC3)nc2c(N2CC3(CCN(C)C3)C2)n1` [Compound 49, N-(1-(cyclopropylsulfonyl)piperidin-4-yl)-6-methyl-8-(6-methyl-2,6-diazaspiro[3.4]octan-2-yl)pyrido[3,4-d]pyrimidin-2-amine], the IC50 was 500 to 2000 nM in the assay with MCF-7 cells; under 200 nM at CDK4/Cyclin D1; 500 to 2000 nM at CDK1/Cyclin B1; 200 to 500 nM on CDK6/Cyclin D3; under 200 nM at CDK2/Cyclin E1; 500 to 2000 nM in the assay with OVCAR-3 cells.

Consider `CS(=O)(=O)N1CCC(Nc2ncc3cc(C4CC4)nc(N4CC(F)(F)C5(CNC5)C4)c3n2)CC1` [Example 60, 6-cyclopropyl-8-(8,8-difluoro-2,6-diazaspiro[3.4]octan-6-yl)-N-(1-(methylsulfonyl)piperidin-4-yl)pyrido[3,4-d]pyrimidin-2-amine], for which the IC50 with MCF-7 cells was 500 to 2000 nM; at CDK4/Cyclin D1 it was under 200 nM; on CDK1/Cyclin B1, under 200 nM; on CDK6/Cyclin D3, under 200 nM; on CDK2/Cyclin E1 it was under 200 nM; in the assay with OVCAR-3 cells, over 2000 nM.

With `Cc1cc2cnc(Nc3cnn(C4CC5(C4)CN(C)C5)c3)nc2c(N2CCC3(C2)CC3(F)F)n1` (stereo not drawn) [Compound 33, 8-(1,1-difluoro-5-azaspiro[2.4]heptan-5-yl)-6-methyl-N-(1-(2-methyl-2-azaspiro[3.3]heptan-6-yl)-1H-pyrazol-4-yl)pyrido[3,4-d]pyrimidin-2-amine], the IC50 was 500 to 2000 nM in the assay on MCF-7 cells; under 200 nM on CDK4/Cyclin D1; 500 to 2000 nM on CDK1/Cyclin B1; under 200 nM at CDK6/Cyclin D3; 200 to 500 nM at CDK2/Cyclin E1; 500 to 2000 nM in the assay with OVCAR-3 cells.

On to `Cc1cc2cnc(Nc3cnn(CC4(N(C)C)CC4)c3)nc2c(N2CCC3(C2)CC3(F)F)n1` (stereo not drawn) [Compound 36, 8-(1,1-difluoro-5-azaspiro[2.4]heptan-5-yl)-N-(1-((1-(dimethylamino)cyclopropyl)methyl)-1H-pyrazol-4-yl)-6-methylpyrido[3,4-d]pyrimidin-2-amine], for which the IC50 was over 2000 nM in the assay with MCF-7 cells; 200 to 500 nM on CDK4/Cyclin D1; over 2000 nM at CDK1/Cyclin B1; 500 to 2000 nM on CDK6/Cyclin D3; 200 to 500 nM on CDK2/Cyclin E1; over 2000 nM with OVCAR-3 cells.

For the compound `Cc1cc2cnc(NC3CCN(S(=O)(=O)C4CC4)CC3)nc2c(N2CC3(C2)CC(C)(O)C3)n1` [Compound 78, 2-(2-((1-(cyclopropylsulfonyl)piperidin-4-yl)amino)-6-methylpyrido[3,4-d]pyrimidin-8-yl)-6-methyl-2-azaspiro[3.3]heptan-6-ol], the IC50 in the assay on MCF-7 cells is 500 to 2000 nM; on CDK4/Cyclin D1, under 200 nM; on CDK1/Cyclin B1 it was 200 to 500 nM; on CDK6/Cyclin D3, 200 to 500 nM; on CDK2/Cyclin E1, under 200 nM; in the assay with OVCAR-3 cells, 500 to 2000 nM.

Turning to `Cc1cc2cnc(NC3CCN(S(=O)(=O)CC4CCCC4)CC3)nc2c(N2CC3(CCNC3)C2)n1` [Example 51, N-(1-((cyclopentylmethyl)sulfonyl)piperidin-4-yl)-6-methyl-8-(2,6-diazaspiro[3.4]octan-2-yl)pyrido[3,4-d]pyrimidin-2-amine], the IC50 was 500 to 2000 nM in the assay on MCF-7 cells; under 200 nM on CDK4/Cyclin D1; 500 to 2000 nM at CDK1/Cyclin B1; 200 to 500 nM at CDK6/Cyclin D3; under 200 nM on CDK2/Cyclin E1; 500 to 2000 nM with OVCAR-3 cells.
